In US8865913B2, “Crystalline forms and processes for their preparation” (BIAL-Portela & C.A., S.A, priority 2010, dated 2014):
Values belong to the compound of their own block, whether it stands above or below them.

What was measured:
Format in all cases: physicochemical
[1] = Moisture sorption analysis (VTI SGA-100, 5 to 95% RH); conditions: for hysteresis upon desorption: decreasing relative humidity; for hysteresis upon desorption / weight loss between ~95% and ~5% RH: desorption; for weight loss between ~95% and ~5% RH: ~95% to ~5% RH; for weight gain between ~5% and ~75% RH / total water uptake between ~5% and ~95% RH / weight gain between ~75% and ~95% RH: sorption; for weight gain between ~5% and ~75% RH: ~5% to ~75% RH; for total water uptake between ~5% and ~95% RH: ~5% to ~95% RH; for weight gain between ~75% and ~95% RH: ~75% to ~95% RH
Description: 9. Moisture Sorption Analysis
Moisture sorption/desorption data were collected on a VTI SGA-100 Vapor Sorption Analyzer. NaCl and PVP were used as calibration standards. Samples were not dried prior to analysis. Sorption and desorption data were collected over a range from 5 to 95% RH at 10% RH increments under a nitrogen purge. The equilibrium criterion used for analysis was less than 0.0100% weight change in 5 minutes with a maximum equilibration time of 3 hours. Data were not corrected for the initial moisture content of the samples.

[2] = Aqueous vapor stress experiments
Description: d. Aqueous Vapor Stress Experiments
Samples of starting material were exposed to ˜85% and ˜97% relative humidity at ambient temperature and ˜75% relative humidity at ˜40° C. for a specified duration.

[3] = Organic vapor stress experiments
Description: e. Organic Vapor Stress Experiments
Samples of starting material were exposed to vapors of a specified organic solvent for a given amount of time by placing open vials with solids tested into 20 mL vials containing solvent. Organic vapor stress experiments were conducted at ambient temperature.

[4] = Heat stress experiments of amorphous material; conditions: sample no. 3
Text: i. Heat Stress Experiments
Samples of amorphous material were placed in heating ovens at temperature set below or above the glass transition, or were agitated on a shaker block at elevated temperature for a given duration.

[5] = Slow cooling of the melt experiment; conditions: 77° C., SC to RT; sample no. 3
Text: j. Slow Cooling of the Melt Experiment
Samples of amorphous material were heated on a hot plate at temperature above the glass transition. The sample was then allowed to slow cool to ambient by turning the heating device off.

[6] = Mechanical stress experiments (ball mill, dry/wet grinding)
Text: h. Mechanical Stress Experiments
Samples of starting material were placed in a Retsch ball mill and milled for two five-minute cycles without solvent (dry grinding) or with a small amount of solvent added (wet grinding) scraping the solids between the cycles. Ten-minute cycles were used for milling of a selected sample without addition of solvent.

[7] = Slurry experiments (incl. water activity slurries)
Description: Solutions were prepared by addition of a solvent or solvent mixture to the starting material with excess solids present. The mixtures were then agitated in sealed vials at either ambient or a set temperature. For agitation at subambient temperature, chilled solvent was added and the sample was immediately transferred to a freezer. After a given amount of time, the solids were isolated.

moisture retained upon desorption ([1]; desorption between ~85% and ~15% RH): 3.6-5.8 wt % | hysteresis upon desorption ([1]; listed as Sample No. 2): large hysteresis | weight loss between ~95% and ~5% RH ([1]; listed as Sample No. 2): ~8.6 wt % | weight loss between ~95% and ~5% RH ([1]; listed as amorphous compound 2): around 8.6 wt % | weight gain upon equilibration at ~5% RH ([1]; moisture sorption, listed as Sample No. 2): ~0.1 wt % | weight gain upon equilibration at ~5% RH ([1]; moisture sorption, listed as amorphous compound 2): around 0.08 wt % | weight gain between ~5% and ~75% RH ([1]; listed as Sample No. 2): approximately 1.2 wt % | weight gain between ~5% and ~75% RH ([1]; listed as amorphous compound 2): around 1.2 wt % | total water uptake between ~5% and ~95% RH ([1]; listed as Sample No. 2): ~9.9 wt % | weight gain between ~75% and ~95% RH ([1]; listed as Sample No. 2): ~8.7 wt % | weight gain between ~75% and ~95% RH ([1]; listed as amorphous compound 2): around 8.7 wt % | XRPD result after aqueous vapor stress ([2]; 75% RH, 40° C., 1 day, starting material sample no. 3): Disordered, Form A | XRPD result after aqueous vapor stress ([2]; 85% RH, 3 days, starting material sample no. 14): No peaks | XRPD result after aqueous vapor stress ([2]; 97% RH, RT, 6 days, starting material sample no. 3): Amorphous/Form A mixture | XRPD result after organic vapor stress ([3]; Acetone, 1 day, starting material sample no. 2): Form A | XRPD result after organic vapor stress ([3]; CHCl3, 1 day, starting material sample no. 2): Form A | XRPD result after organic vapor stress ([3]; EtOAc, 1 day, starting material sample no. 2): Form B | XRPD result after organic vapor stress ([3]; IPE, 2 days, starting material sample no. 3): Form A | XRPD result after heat stress ([4]; 36° C., 1 day, heating with agitation): Disordered, Form A | XRPD result after heat stress ([4]; 40° C., 3 hrs): Amorphous/Form A mixture | XRPD result after heat stress ([4]; 50° C., 3 hrs): Amorphous/Form A mixture | XRPD result after heat stress ([4]; 60° C., 3 hrs): Disordered, Form A | XRPD result after heat stress ([4]; 80° C., 3 hrs): Form A^c | XRPD result after heat stress ([4]; 80° C., 1 day): Form A^c | XRPD result after cooling from the melt [5]: Amorphous/Form A mixture
Structure (SMILES): Fc1cc(F)c2c(c1)C[C@@H](n1c(CCNCc3ccccc3)c[nH]c1=S)CO2 [Amorphous, 1-[(3R)-6,8-difluoro-3,4-dihydro-2H-1-benzopyran-3-yl]-1,3-dihydro-5-[2-[(phenylmethyl)amino]ethyl]-2H-Imidazole-2-thione]
hysteresis upon desorption ([1]; listed as amorphous compound 2): hysteresis over a range of more than 50% RH | hygroscopicity ([1]; moisture sorption, amorphous material): significant hygroscopicity (a material that exhibits ≧2.0 wt % water uptake over a specified RH range)

hysteresis upon desorption ([1]; listed as Lot 5): Small hysteresis | hysteresis upon desorption ([1]; listed as lot 5): small hysteresis | weight loss between ~95% and ~5% RH [1]: around 0.20 wt % | weight loss between ~95% and ~5% RH ([1]; listed as Lot 5): ~0.20 wt % | weight loss between ~95% and ~5% RH ([1]; listed as lot 5): ~0.20 wt % | weight change upon equilibration at ~5% RH ([1]; moisture sorption): negligible loss | weight change upon equilibration at ~5% RH ([1]; moisture sorption, listed as lot 5): negligible weight loss | weight gain between ~5% and ~75% RH [1]: around 0.02 wt % | weight gain between ~5% and ~75% RH ([1]; listed as Lot 5): ~0.02 wt % gain between ~5% and ~75% RH | weight gain between ~5% and ~75% RH ([1]; listed as lot 5): ~0.02 wt % | total water uptake between ~5% and ~95% RH ([1]; listed as lot 5): ~0.21 wt % | weight gain between ~75% and ~95% RH [1]: around 0.19 wt % | weight gain between ~75% and ~95% RH ([1]; listed as Lot 5): ~0.19 wt % gain between ~75% and ~95% RH | weight gain between ~75% and ~95% RH ([1]; listed as lot 5): ~0.19 wt % | XRPD result after aqueous vapor stress ([2]; 75% RH, 40° C., 2 days): Form A | XRPD result after aqueous vapor stress ([2]; 85% RH, 2 days): Form A | stability of the crystal form upon aqueous vapor stress ([2]; summary statement): remains stable as a crystal form | XRPD result after organic vapor stress ([3]; CHCl3, vapor stress, 11 days): Form A | XRPD result after organic vapor stress ([3]; EtOAc, vapor stress, 11 days): Form A | XRPD result after mechanical stress ([6]; Acetone, wet grinding, 2 × 5 min. cycles): Form A | XRPD result after mechanical stress ([6]; DMF, wet grinding, 2 × 5 min. cycles): Form A | XRPD result after mechanical stress ([6]; Dry grinding, 2 × 5 min. cycles): Form A (disordered) | XRPD result after mechanical stress ([6]; Dry grinding, 2 × 10 min. cycles): Form A (disordered) | XRPD result after mechanical stress ([6]; MEK, wet grinding, 2 × 5 min. cycles): Form A | XRPD result after mechanical stress ([6]; TFE, wet grinding, 2 × 5 min. cycles): Form A | XRPD result after mechanical stress ([6]; THF, wet grinding, 2 × 5 min. cycles): Form A | stability of the crystal form upon mechanical stress ([6]; summary statement): remains stable as a crystal form
Structure (SMILES): Fc1cc(F)c2c(c1)C[C@@H](n1c(CCNCc3ccccc3)c[nH]c1=S)CO2 [Form A, 1-[(3R)-6,8-difluoro-3,4-dihydro-2H-1-benzopyran-3-yl]-1,3-dihydro-5-[2-[(phenylmethyl)amino]ethyl]-2H-imidazole-2-thione]
hygroscopicity ([1]; 5% to 95% RH): low hygroscopicity (a material that exhibits <0.5 wt(weight) % water uptake over a specified relative humidity range) | hysteresis upon desorption [1]: hysteresis between around 85% to around 45% RH | weight change upon equilibration at ~5% RH ([1]; moisture sorption, listed as Lot 5): Negligible loss upon equilibration at ~5% RH

XRPD result of water activity slurry ([7]; amorphous starting material sample no. 2, Water, 50° C., 3 days, aw 1, sample no. 119): Material C (close to Form A + peaks) | XRPD result of water activity slurry ([7]; amorphous starting material sample no. 3, Acetone/water (25/75), aw 0.95, ambient, 6 days, sample no. 108): Form A^c | XRPD result of water activity slurry ([7]; amorphous starting material sample no. 3, Acetone/water (33/67), aw 0.93, ambient, 6 days, washed w/ acetone/water (33/67), sample no. 107): Form A^c | XRPD result of water activity slurry ([7]; amorphous starting material sample no. 3, Acetone/water (60/40), aw 0.89, ambient, 6 days, sample no. 106): Form A | XRPD result of water activity slurry ([7]; amorphous starting material sample no. 3, Acetone/water (82/18), aw 0.80, ambient, 6 days, sample no. 105): Form A | XRPD result of water activity slurry ([7]; amorphous starting material sample no. 3, Acetone/water (88/12), aw 0.73, ambient, 6 days, sample no. 104): Form A | XRPD result of water activity slurry ([7]; amorphous starting material sample no. 3, DMF/water (9/91), aw 0.98, RT, 5 days, washed w/ water, sample no. 115): Form A^c | XRPD result of water activity slurry ([7]; amorphous starting material sample no. 3, DMSO/water (10/90), aw 0.97, RT, 5 days, washed w/ water, sample no. 116): Form A^c | XRPD result of water activity slurry ([7]; amorphous starting material sample no. 3, EtOH/water (67/33), aw 0.82, 40° C., 2 days, sample no. 111): Form A^c | XRPD result of water activity slurry ([7]; amorphous starting material sample no. 3, Ethanol/water (20/80), aw 0.95, ambient, 6 days, sample no. 113): Form A^c | XRPD result of water activity slurry ([7]; amorphous starting material sample no. 3, Ethanol/water (47/53), aw 0.90, ambient, 6 days, sample no. 112): Form A^c | XRPD result of water activity slurry ([7]; amorphous starting material sample no. 3, Ethanol/water (70/30), aw 0.80, ambient, 6 days, sample no. 110): Form A^c | XRPD result of water activity slurry ([7]; amorphous starting material sample no. 3, Ethanol/water (80/20), aw 0.70, ambient, 6 days, sample no. 109): Form A^c | XRPD result of water activity slurry ([7]; amorphous starting material sample no. 3, IPA/water (50/50), aw 0.96, 40° C., 2 days, sample no. 114): Form A^c | XRPD result of water activity slurry ([7]; amorphous starting material sample no. 3, MeOH/water (50/50), aw 0.75, ambient, 6 days, washed w/ MeOH/water (50/50), sample no. 117): Form A^c | XRPD result of water activity slurry ([7]; amorphous starting material sample no. 3, THF/water (50/50), aw 1.03, ambient, 6 days, washed w/ THF/water (50/50), VO, RT, 1 h, sample no. 118): Form A^c | XRPD result of water activity slurry ([7]; amorphous starting material sample no. 3, Water, RT, 4 days, surfactant as wetting agent, aw 1, sample no. 121): Form A
Structure (SMILES): Fc1cc(F)c2c(c1)C[C@@H](n1c(CCNCc3ccccc3)c[nH]c1=S)CO2 [compound 2, 1-[(3R)-6,8-difluoro-3,4-dihydro-2H-1-benzopyran-3-yl]-1,3-dihydro-5-[2-[(phenylmethyl)amino]ethyl]-2H-imidazole-2-thione]
